Patent US20190127366A1 (LifeSci Pharmaceuticals, Inc., priority 2015, published 2019)

biological target: T1, human complement factor D (Homo sapiens, UniProt P00746); assay: In vitro enzyme inhibition (Z-Lys-SBzl/DTNB absorbance assay); type: biochemical; conditions: Complement Factor D (R&D Systems), substrate Z-Lys-SBzl, A405 nm; read-out: CFD IC50
T1 construct: purchased R&D Systems 1824-SE
Protocol: The ability of the compounds disclosed herein to inhibit human complement factor D inhibitory activity was quantified according to the 12-step protocol provided below. • 1. Prepare assay buffer: 50 mM Tris/HCl, pH 7.5, 1 M NaCl. • 2. Dilute 10 mM Complement Factor D inhibitor Nafamostat Mesilate (Selleckchem, Catalog #S1386) solution from 10000 μM to 9.77 μM in 100% DMSO, 8 concentrations. Then dilute the serial concentrations of Nafamostat Mesilate 20-fold in assay buffer. • 3. Add 10 μl diluted Nafamostat Mesilate duplicated into each of the inhibitor control well of a 96-well plate (Corning, Catalog #3599). Final concentrations were 50 μM, 25 μM, 12.5 μM, 6.25 μM, 3.125 μM, 0.781 μM, 0.195 μM and 0.049 μM. 0.5% DMSO was in each well finally. • 4. Dilute 20 mM test compounds from 10000 μM to […] in 100% DMSO, 6-fold dilution, 8 concentrations. Then dilute the serial concentrations of test compounds 20-fold in assay buffer. • 5. Add 10 μl diluted test compounds duplicated into the 96-well plate. Final concentrations were 50 μM, 8.33 μM, 1.39 μM, 0.23 μM, 0.0386 μM, 0.0064 μM, 0.0011 μM and 0.0002 μM. 0.5% DMSO was in each well finally. • 6. Dilute 20 mM substrate Z-Lys-SBzl (Bachem, Cat #M-1300) to 200 μM in assay buffer with 200 μM DTNB(Sigma, Catalog #D8130). • 7. Dilute 738 ng/μL Complement Factor D (R&D Systems, Catalog #1824-SE) to 6.25 ng/μL in assay buffer. Add 40 μl diluted Complement Factor D in the 96-well plate. • 8. Positive control well contains Complement Factor D without test compound. Negative control well contains neither Complement Factor D nor test compound. Using assay buffer, bring the total volume of all controls to 50 μl. • 9. Pre-incubate the plate for 5 min at room temperature. • 10. Add 50 μl of diluted substrate/DTNB mixture into each well. Mix the reagents completely by shaking the plate gently for 30 sec. • 11. For kinetic reading: Immediately start measuring absorbance (A405 nm) continuously and record data every 30sec for 60 min. • 12. Data analysis • Inhibition activity of compound was evaluated by IC50. IC50 was calculated according the dose-response curve of compound fitted using GraphPadPrism with “log(inhibitor)-response (variable slope)” equation. • % inhibition was calculated by using following equation:
[formula] • Mean(NC): The average value of the negative control wells' A405 nm values. • Mean(PC): The average value of the positive control wells' A405 nm values.
The ability of the compounds in Table 2 to inhibit human complement factor D inhibitory activity was determined.

T1 sequence (P00746 26-253): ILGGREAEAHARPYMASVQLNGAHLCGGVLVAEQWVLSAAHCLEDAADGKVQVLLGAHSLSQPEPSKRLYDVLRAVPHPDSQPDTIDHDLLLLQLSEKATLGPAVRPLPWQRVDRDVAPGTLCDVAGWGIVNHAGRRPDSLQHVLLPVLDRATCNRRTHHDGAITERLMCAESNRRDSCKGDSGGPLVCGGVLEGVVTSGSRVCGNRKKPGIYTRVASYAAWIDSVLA

SMILES | IC50
NC(=O)c1nn(CC(=O)N2[C@@H]3CC[C@@H](C3)[C@H]2C(=O)Nc2cc(C(F)(F)F)ccn2)c2ccccc12 [Example 55, 1-(2-oxo-2-((1R,3S,4S)-3-((4-(trifluoromethyl)pyridin-2-yl)carbamoyl)-2-azabicyclo[2.2.1]heptan-2-yl)ethyl)-1H-indazole-3-carboxamide] | > 10000 nM
NC(=O)c1nn(CC(=O)N2[C@@H]3CC[C@@H](C3)[C@H]2C(=O)Nc2ccnc(Cl)c2)c2ccccc12 [Example 57, 1-(2-((1R,3S,4S)-3-((2-chloropyridin-4-yl)carbamoyl)-2-azabicyclo[2.2.1]heptan-2-yl)-2-oxoethyl)-1H-indazole-3-carboxamide] | 1000 to 10000 nM
NC(=O)c1nn(CC(=O)N2[C@@H]3CC[C@@H](C3)[C@H]2C(=O)Nc2cncc(Cl)c2)c2ccccc12 [Example 58, 1-(2-((1R,3S,4S)-3-((5-chloropyridin-3-yl)carbamoyl)-2-azabicyclo[2.2.1]heptan-2-yl)-2-oxoethyl)-1H-indazole-3-carboxamide] | 1000 to 10000 nM
NC(=O)c1nn(CC(=O)N2[C@@H]3CC[C@@H](C3)[C@H]2C(=O)NCc2ccc(F)c(Cl)c2)c2ccccc12 [Example 63, 1-(2-((1R,3S,4S)-3-((3-chloro-4-fluorobenzyl)carbamoyl)-2-azabicyclo[2.2.1]heptan-2-yl)-2-oxoethyl)-1H-indazole-3-carboxamide 2,2,2-trifluoroacetate] | 1000 to 10000 nM
NC(=O)c1nn(CC(=O)N2[C@@H]3CC[C@@H](C3)[C@H]2C(=O)NCc2cc(F)cc(Cl)c2)c2ccccc12 [Example 64, 1-(2-((1R,3S,4S)-3-((3-chloro-5-fluorobenzyl)carbamoyl)-2-azabicyclo[2.2.1]heptan-2-yl)-2-oxoethyl)-1H-indazole-3-carboxamide 2,2,2-trifluoroacetate] | 100 to 1000 nM
Cc1cc(C)nc(NC(=O)[C@@H]2[C@H]3CC[C@H](C3)N2C(=O)Cn2nc(C(N)=O)c3ccccc32)c1 [Example 67, 1-(2-((1R,3S,4S)-3-((4,6-dimethylpyridin-2-yl)carbamoyl)-2-azabicyclo[2.2.1]heptan-2-yl)-2-oxoethyl)-1H-indazole-3-carboxamide 2,2,2-trifluoroacetate] | > 10000 nM
NC(=O)c1nn(CC(=O)N2[C@@H]3CC[C@@H](C3)[C@H]2C(=O)NCc2cc(Cl)ccc2Cl)c2ccccc12 [Example 69, 1-(2-((1R,3S,4S)-3-((2,5-dichlorobenzyl)carbamoyl)-2-azabicyclo[2.2.1]heptan-2-yl)-2-oxoethyl)-1H-indazole-3-carboxamide] | 1000 to 10000 nM
NC(=O)c1nn(CC(=O)N2[C@@H]3CC[C@@H](C3)[C@H]2C(=O)NCc2cccc(Cl)c2Cl)c2ccccc12 [Example 70, 1-(2-((1R,3S,4S)-3-((2,3-dichlorobenzyl)carbamoyl)-2-azabicyclo[2.2.1]heptan-2-yl)-2-oxoethyl)-1H-indazole-3-carboxamide] | 100 to 1000 nM
NC(=O)c1nn(CC(=O)N2[C@@H]3CC[C@@H](C3)[C@H]2C(=O)NCc2ccc(Cl)c(Cl)c2)c2ccccc12 [Example 72, 1-(2-((1R,3S,4S)-3-((3,4-dichlorobenzyl)carbamoyl)-2-azabicyclo[2.2.1]heptan-2-yl)-2-oxoethyl)-1H-indazole-3-carboxamide] | 1000 to 10000 nM

Next, values leading:

IC50 | SMILES
100 to 1000 nM | Cc1ccc2c(c1)c(C(N)=O)nn2CC(=O)N1[C@@H]2CC[C@@H](C2)[C@H]1C(=O)NCc1cccc(Cl)c1F [Example 60, 1-(2-((1R,3S,4S)-3-((3-chloro-2-fluorobenzyl)carbamoyl)-2-azabicyclo[2.2.1]heptan-2-yl)-2-oxoethyl)-5-methyl-1H-indazole-3-carboxamide]
100 to 1000 nM | Cc1ccc2c(c1)c(C(N)=O)nn2CC(=O)N1[C@@H]2CC[C@@H](C2)[C@H]1C(=O)Nc1cccc(Cl)n1 [Example 61, 1-(2-((1R,3S,4S)-3-((6-chloropyridin-2-yl)carbamoyl)-2-azabicyclo[2.2.1]heptan-2-yl)-2-oxoethyl)-5-methyl-1H-indazole-3-carboxamide]
100 to 1000 nM | NC(=O)c1nn(CC(=O)N2[C@@H]3CC[C@@H](C3)[C@H]2C(=O)Nc2cccc(Cl)n2)c2ccc(F)cc12 [Example 62, 1-(2-((1R,3S,4S)-3-((6-chloropyridin-2-yl)carbamoyl)-2-azabicyclo[2.2.1]heptan-2-yl)-2-oxoethyl)-5-fluoro-1H-indazole-3-carboxamide]
100 to 1000 nM | Cc1ccc(NC(=O)[C@@H]2[C@H]3CC[C@H](C3)N2C(=O)Cn2nc(C(N)=O)c3ccccc32)nc1Cl [Example 68, 1-(2-((1R,3S,4S)-3-((6-chloro-5-methylpyridin-2-yl)carbamoyl)-2-azabicyclo[2.2.1]heptan-2-yl)-2-oxoethyl)-1H-indazole-3-carboxamide 2,2,2-trifluoroacetate]
1000 to 10000 nM | NC(=O)c1nn(CC(=O)N2[C@@H]3CC[C@@H](C3)[C@H]2C(=O)Nc2cccc(Cl)n2)c2ccc([N+](=O)[O-])cc12 [Example 73, 1-(2-((1R,3S,4S)-3-((6-chloropyridin-2-yl)carbamoyl)-2-azabicyclo[2.2.1]heptan-2-yl)-2-oxoethyl)-5-nitro-1H-indazole-3-carboxamide]
1000 to 10000 nM | COc1ccc2c(c1)c(C(N)=O)nn2CC(=O)N1[C@@H]2CC[C@@H](C2)[C@H]1C(=O)Nc1cccc(Cl)n1 [Example 74, 1-(2-((1R,3S,4S)-3-((6-chloropyridin-2-yl)carbamoyl)-2-azabicyclo[2.2.1]heptan-2-yl)-2-oxoethyl)-5-methoxy-1H-indazole-3-carboxamide]
100 to 1000 nM | NC(=O)c1nn(CC(=O)N2[C@@H]3CC[C@@H](C3)[C@H]2C(=O)Nc2cccc(Cl)n2)c2ccc(N)cc12 [Example 75, 5-amino-1-(2-((1R,3S,4S)-3-((6-chloropyridin-2-yl)carbamoyl)-2-azabicyclo[2.2.1]heptan-2-yl)-2-oxoethyl)-1H-indazole-3-carboxamide]
100 to 1000 nM | NC(=O)c1nn(CC(=O)N2[C@@H]3CC[C@@H](C3)[C@H]2C(=O)Nc2ccc(Cl)c(Cl)n2)c2ccccc12 [Example 76, 1-(2-((1R,3S,4S)-3-((5,6-dichloropyridin-2-yl)carbamoyl)-2-azabicyclo[2.2.1]heptan-2-yl)-2-oxoethyl)-1H-indazole-3-carboxamide]
100 to 1000 nM | COC(=O)c1ccc2c(c1)c(C(N)=O)nn2CC(=O)N1[C@@H]2CC[C@@H](C2)[C@H]1C(=O)Nc1cccc(Cl)n1 [Example 78, methyl 3-carbamoyl-1-(2-((1R,3S,4S)-3-((6-chloropyridin-2-yl)carbamoyl)-2-azabicyclo[2.2.1]heptan-2-yl)-2-oxoethyl)-1H-indazole-5-carboxylate]
100 to 1000 nM | COc1ccc2c(c1)c(C(C)=O)nn2CC(=O)N1[C@@H]2CC[C@@H](C2)[C@H]1C(=O)Nc1cccc(Cl)n1 [Example 79, (1R,3S,4S)-2-(2-(3-acetyl-5-methoxy-1H-indazol-1-yl)acetyl)-N-(6-chloropyridin-2-yl)-2-azabicyclo[2.2.1]heptane-3-carboxamide]
100 to 1000 nM | N#Cc1ccc2c(c1)c(C(N)=O)nn2CC(=O)N1[C@@H]2CC[C@@H](C2)[C@H]1C(=O)Nc1cccc(Cl)n1 [Example 81, 1-(2-((1R,3S,4S)-3-((6-chloropyridin-2-yl)carbamoyl)-2-azabicyclo[2.2.1]heptan-2-yl)-2-oxoethyl)-5-cyano-1H-indazole-3-carboxamide]
1000 to 10000 nM | COC(=O)c1nn(CC(=O)N2[C@@H]3CC[C@@H](C3)[C@H]2C(=O)Nc2cccc(Cl)n2)c2ccccc12 [Example 82, methyl 1-(2-((1R,3S,4S)-3-((6-chloropyridin-2-yl)carbamoyl)-2-azabicyclo[2.2.1]heptan-2-yl)-2-oxoethyl)-1H-indazole-3-carboxylate]
100 to 1000 nM | CC(=O)c1nn(CC(=O)N2[C@@H]3CC[C@@H](C3)[C@H]2C(=O)Nc2cccc(Cl)n2)c2ccc(C)cc12 [Example 83, (1R,3S,4S)-2-(2-(3-acetyl-5-methyl-1H-indazol-1-yl)acetyl)-N-(6-chloropyridin-2-yl)-2-azabicyclo[2.2.1]heptane-3-carboxamide]
